Data reported in US8652770B2, “Storage of platelets under pressure with xenon containing atmosphere” (Rich Products Corporation, priority 2008, dated 2014).

Assays:
Assay type in all cases: cell-based, rabbit
[1] = test system: platelets; assay: ADP-induced platelet aggregation, xenon compared to argon, vacuum step omitted; conditions: Table 3, 4 bars total pressure of gas, 4° C., 7 days, no vacuum step
Method: In view of the result obtained in Table 2, we performed another set of experiments to compare the properties of xenon to argon in ADP-induced platelet aggregation assays, the results of which are depicted in Table 3.
The experiments summarized in Table 3 were performed using an atmosphere of 4 bars total pressure created by introducing xenon or argon into the containers using essentially the same techniques as for the experiments described for Tables 1 and 2, except the PRP samples were cooled to 4° C. and held at approximately in an atmosphere of 3.8 bar xenon for 7 days. In this experiment, the initial partial pressure of xenon was 4 bars, but the pressure dropped to 3.8 bars during storage, presumably due to dissolution of xenon into the platelets from the atmosphere in the container.

[2] = test system: platelets; assay: Platelet cell counting (hemocytometer) after storage of PRP; set-up: # cells: unit not given here; conditions: 4° C.; for # cells: Table 3, 4 bars total pressure of gas, 7 days; for Cell number: Input = 100%
Method: Blood was obtained by puncturing a rabbit marginal ear vein and collecting blood in a sterile vacuum tube. About 10-15 ml of blood was used, although the amount taken from any particular individual can be varied by the skilled artisan according to routine considerations, such as the size of the individual and the intended use of the platelets prepared according to the method of the invention.
The blood was centrifuged at a speed of approximately 200 g for 10 minutes to separate red blood cells (RBC) and platelet rich plasma (PRP). The PRP was transferred to another tube.
(§1) Two microliters of PRP were used to count cells essentially as described in Born et al. (J. Physiol. (1963) Vol. 168, pp 178-195). An additional two microliters were used for antibody staining and flow cytometry analysis performed essentially as reported in Shattil et al. (1987) Detection, Blood Vol. 70 p 307-315.
(§2) For determining platelet aggregation, approximately 250 microliters of PRP were used for a pre-treatment aggregation test. The remaining PRP was transferred to test tubes in which the atmosphere was adjusted to include xenon under two distinct pressures (4 bars of total pressure created by introducing 99.999% xenon into the test tube in a first set of experiments, and 5.3 bars of total pressure, also created by introducing 99.999% xenon into the test tube, in a second set of experiments). For adjusting the atmosphere in the containers, the test tubes were covered with rubberized caps that were punctured for introducing xenon. The test tubes were put into an experimental chamber and the atmosphere in the test tubes was adjusted by filling the test tubes with xenon using a 0.2-micrometer aseptic filter. Pressure changes in the tubes were measured using a manometer. Negative controls (no adjustment of the composition of the atmosphere in which the platelets were held) were also performed.
(§3) The chambers were shaken at 150-200 rpm on a Biosan OS-10 orbital shaker for one hour at ambient temperature (approximately 23° C.) to dissolve xenon in the PRP. The experimental chambers were then stored at approximately 4° C. with shaking at 50-70 rpm using a Biosan OS-10 orbital shaker and removed at one and two week time points for experiments under 4 bars of xenon pressure. The experiment using the initial xenon pressure of 5.3 bars were stored at 4° C. for 1 week.
After storage, the chambers were removed from refrigeration and kept at ambient temperature (approximately 23° C.) for 30 minutes with shaking at approximately 150-200 rpm. The atmosphere was then slowly allowed to equilibrate with ambient pressure of a period of 30 minutes by allowing the atmosphere in the chamber and in the test tubes to equilibrate with the atmosphere outside the test tubes through a specially adapted valve. […]
Subsequent to allowing the atmosphere in the experimental and control tubes to equilibrate with ambient pressure and temperature, the PRP samples were analyzed using conventional hemocytometer based cell counting, induced aggregation analysis using ADP and epinephrine, whereby aggregation was determined using manual counting and aggregometer analysis according to standard techniques, and by cd62p/cd61 immunostaining and flow cytometry analysis performed on an Epic XL, Beckman-Coulter cytometry machine. […]

[3] = test system: platelets; assay: ADP/epinephrine induced platelet aggregation after storage of PRP; conditions: for Aggregation (ADP/epinephrine): Xe 4 bars, Input = 100%; for Aggregation (ADP/epinephrine), %: Table 2, 7 days Xe, 4 bars
Description: as §2, §3
After storage, the chambers were removed from refrigeration and kept at ambient temperature (approximately 23° C.) for 30 minutes with shaking at approximately 150-200 rpm. The atmosphere was then slowly allowed to equilibrate with ambient pressure of a period of 30 minutes by allowing the atmosphere in the chamber and in the test tubes to equilibrate with the atmosphere outside the test tubes through a specially adapted valve. Once the atmosphere in the chambers and test tubes equilibrated with ambient pressure, a vacuum was applied for approximately three minutes at approximately 380 mmHg to remove residual xenon from the PRP.
(§4) Analysis of the platelet function after storage included platelet counting at a hemocytometer, platelet aggregation tests using ADP and epinephrine as aggregation inducing agents, with manual counting and analysis using an aggregometer, and CD62p/CD61 antibody staining, with subsequent flow cytometry analysis on Epic XL, Beckman-Coulter generally as described in Shattil et al. (1987) Blood Vol. 70 p […] of platelets were stained using anti-CD62p and anti-CD61 antibodies obtained from commercial vendors.
(§5) Subsequent to allowing the atmosphere in the experimental and control tubes to equilibrate with ambient pressure and temperature, the PRP samples were analyzed using conventional hemocytometer based cell counting, induced aggregation analysis using ADP and epinephrine, whereby aggregation was determined using manual counting and aggregometer analysis according to standard techniques, and by cd62p/cd61 immunostaining and flow cytometry analysis performed on an Epic XL, Beckman-Coulter cytometry machine. The cdc62p/cd61 analysis was performed using commercially available antibodies and generally according to the known method reported in Shattil et al. (1987) Detection of activated platelets in whole blood using activation-dependent monoclonal antibodies and flow cytometry, Blood Vol. 70 p 307-315.

[4] = test system: Cd41/62p; assay: Cd41/62p immunostaining and flow cytometry (platelet activation markers); conditions: for Cd41/62p: % of cells with activation markers, Xe 4 bars, 4° C., Input 13%
Description: We analyzed platelet activation using a standard methodology comprising immunostaining platelets for CD62 and CD41 and subsequent analysis by flow cytometry. […] Thus, it will be recognized by those skilled in the art that the invention provides stored platelet preparations that are useful for treating individuals in need of platelet transfusion therapy. It is therefore considered that practicing the method of the invention transforms a platelet concentrate that would not ordinarily tolerate refrigeration into a platelet concentrate that can withstand refrigeration such that the platelet concentrate remains useful for transfusions after being stored at refrigerated temperature for at least two weeks. It will also be recognized that the platelet concentrate has other potential uses, such as in high-throughput assays to screen a test agent for the capability to modify platelet function.
as §1, §4, §5
In Table 1, “Input” represents pre-treatment/storage measurements. Cell number and Aggregation induced by ADP/epinephrine before performing the method are used to set 100% values. […] NG=no gas. […]

## [Ar] [Argon, argon, reference compound]
[1]
  Aggregation %: 100%
[2]
  # cells: 594 *106

## [Xe] [Xenon, xenon]
[1]
  Aggregation %: 87%
[2]; PRP stored 7 days, Xe 4 bars
  Cell number: 77.5%^
[2]; PRP stored 7 days, Xe 5.3 bars
  Cell number: 12.6%
[2]; PRP stored 14 days, Xe 4 bars
  Cell number: 59%
[2]
  # cells: 674 *106
[3]; 7 days Xe 4 bars 4° C., with vs without vacuum
  improvement of ADP/Epinephrine induced aggregation by evacuating residual xenon with vacuum: 20%
[3]; PRP stored 7 days, 4° C.
  Aggregation (ADP/epinephrine): 83%
[3]; PRP stored 14 days, 4° C.
  Aggregation (ADP/epinephrine): 54.5%^
[3]; 4° C. with three minutes vacuum application
  Aggregation (ADP/epinephrine), %: 72%
[3]; 4° C., no vacuum
  Aggregation (ADP/epinephrine), %: 53%
[3]; after 2 weeks of storage, 4 bar xenon treated sample vs NG control
  induced aggregation higher than no gas control: about 20%
[4]; PRP stored 7 days
  Cd41/62p: 39%
[4]; PRP stored 14 days
  Cd41/62p: 33%
[4]; platelet concentrates treated by the method
  surface CD62 and CD41 over control platelet concentrates not treated with xenon: two-fold less
[4]; xenon 4 bar atmosphere treated samples
  inhibition of spontaneous activation (Cd41/62p) relative to the NG control: two-fold better inhibition
